Among the test systems are RPMI-8226; COLO 205; HCC 2998; A498; SNB-75; 786-0; SK-MEL-5; KM12; K562; HOP-92; Malme-3M; HCT-116; SK-OV-3; OVCAR-3; SF-295; U-251; HCT-15; TK-10; LOX IMVI.
What all share (experiment): DTP human tumour cell line panel, 48 h

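Following 48 hours of exposure in 96-well plates, responses at five concentrations were used to interpolate endpoints linearly. GI50 marks 50% less growth.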 Activity calls are given as the source filed them. Cut-off read from the data, not from the text of the source: active = GI50 up to about 1.1 µM and inactive = higher.

As for `O=C1CCC2CCOc3ccc(O)c1c32` (stereo not drawn), the GI50 in the experiment with RPMI-8226, in the experiment on COLO 205, in the experiment with HCC 2998, in the experiment with A498, in the experiment with SNB-75 and in the experiment on 786-0 was > 100 µM (inactive) throughout. The GI50 with SK-MEL-5, with KM12, with K562, in the experiment on HOP-92, with Malme-3M and with HCT-116 was > 100 µM (inactive) in each case. Also, the GI50 (usually the concentration that inhibits growth by half) in the experiment on SK-OV-3 is > 100 µM (inactive); with OVCAR-3, > 100 µM (inactive); in the experiment on SF-295 it was > 100 µM (inactive); in the experiment on U-251, > 100 µM (inactive); in the experiment with HCT-15 it was above 100 µM; in the experiment with TK-10, > 100 µM (inactive).

In the case of `CC(C)OCN1COCN/C1=N/C#N`, the GI50 was 20.8 µM (inactive) in the experiment on COLO 205; > 100 µM (inactive) in the experiment with HCC 2998; > 100 µM (inactive) in the experiment with A498; > 100 µM (inactive) in the experiment with SNB-75; 98.6 µM (inactive) in the experiment with 786-0; > 100 µM (inactive) in the experiment on SK-MEL-5. The GI50 in the experiment with KM12, in the experiment with K562, in the experiment on HOP-92, in the experiment with Malme-3M, in the experiment with HCT-116 and in the experiment with SK-OV-3 was > 100 µM (inactive) throughout. In addition, the GI50 with OVCAR-3 is > 100 µM (inactive); in the experiment with SF-295, > 100 µM (inactive); in the experiment with U-251, 42.2 µM (inactive); in the experiment with HCT-15, 17.7 µM; with TK-10, > 100 µM (inactive).

Turning to `Cc1ccc(/N=C/c2ccc3c(c2)OCO3)cc1C`, the GI50 in the experiment on RPMI-8226, in the experiment with COLO 205, in the experiment on A498, with SNB-75, in the experiment on 786-0 and in the experiment with SK-MEL-5 was > 100 µM (inactive) throughout. Moreover, the GI50 is > 100 µM (inactive) with KM12; > 10 µM (inactive) with K562; > 100 µM (inactive) in the experiment with HOP-92; > 100 µM (inactive) with Malme-3M; > 100 µM (inactive) in the experiment on HCT-116; > 100 µM (inactive) with SK-OV-3. Besides, the GI50 is > 100 µM (inactive) in the experiment with OVCAR-3; > 100 µM (inactive) with SF-295; 8.13 µM (inactive) in the experiment with U-251; > 100 µM (inactive) in the experiment on LOX IMVI; above 100 µM with HCT-15; > 100 µM (inactive) in the experiment with TK-10.

Regarding `O=c1oc2c3ccc4ccccc4c3n(Cc3nc4ccccc4[nH]3)c2c2ccccc12`, the GI50 in the experiment with RPMI-8226 is 3.48 µM (inactive); in the experiment with COLO 205 it was 12.7 µM (inactive); with HCC 2998, 40.4 µM (inactive); with A498 it was 24.4 µM (inactive); in the experiment with SNB-75, 5.51 µM (inactive); with 786-0, 7.16 µM (inactive). Besides, the GI50 with KM12 is > 64.4 µM (inactive); in the experiment with K562 it was 2.47 µM (inactive); in the experiment on HOP-92 it was > 29.3 µM (inactive); in the experiment with Malme-3M, > 100 µM (inactive); in the experiment with HCT-116 it was 4.72 µM (inactive); in the experiment on SK-OV-3 it was > 100 µM (inactive). The GI50 is 7.08 µM (inactive) in the experiment with OVCAR-3; 9.14 µM (inactive) in the experiment on SF-295; 4.25 µM (inactive) with U-251; 2.26 µM (inactive) in the experiment on LOX IMVI; 1.37 µM in the experiment on HCT-15; > 100 µM (inactive) in the experiment with TK-10.

`O=CN/C=C/c1ccc(O)c(O)c1`: the GI50 with RPMI-8226 was > 100 µM (inactive); with COLO 205, > 100 µM (inactive); with HCC 2998, > 100 µM (inactive); with A498 it was > 100 µM (inactive); in the experiment with SNB-75, 59.8 µM (inactive); in the experiment with 786-0, > 100 µM (inactive). The GI50 in the experiment on KM12, in the experiment with K562, in the experiment on HOP-92, in the experiment with Malme-3M, in the experiment on HCT-116 and in the experiment with SK-OV-3 was > 100 µM (inactive) throughout. For the same compound, the GI50 in the experiment with OVCAR-3 is > 100 µM (inactive); in the experiment on SF-295 it was > 100 µM (inactive); with U-251, > 100 µM (inactive); in the experiment on LOX IMVI it was > 100 µM (inactive); with HCT-15 it was above 100 µM; in the experiment on TK-10, > 100 µM (inactive).

As for `CCCN(CCC)C(=O)c1nc(N)nc(-c2ccc(OC)cc2)c1-c1ccc(OC)cc1`, the GI50 with RPMI-8226 is 29 µM (inactive); in the experiment on COLO 205, > 100 µM (inactive); in the experiment with A498, > 100 µM (inactive); with SNB-75, 37.5 µM (inactive); in the experiment on 786-0 it was > 100 µM (inactive); with SK-MEL-5, > 100 µM (inactive). The GI50 was > 100 µM (inactive) in the experiment on KM12; 84.1 µM (inactive) in the experiment on K562; 82.6 µM (inactive) in the experiment on HOP-92; > 100 µM (inactive) in the experiment on Malme-3M; > 100 µM (inactive) in the experiment on HCT-116; > 100 µM (inactive) in the experiment on SK-OV-3. The GI50 with OVCAR-3 was > 100 µM (inactive); with SF-295, > 100 µM (inactive); in the experiment on U-251, > 100 µM (inactive); in the experiment with HCT-15 it was above 100 µM; in the experiment on TK-10 it was > 100 µM (inactive).

Take `COC(=O)C1=C(C)C(=O)C2(CCCCCC2C(=O)OC)C1` (stereo not drawn): the GI50 in the experiment on RPMI-8226, in the experiment on COLO 205, with HCC 2998, with A498, with SNB-75 and in the experiment on 786-0 was > 100 µM (inactive) each time. For the same compound, the GI50 with SK-MEL-5, in the experiment with KM12, with K562, in the experiment on HOP-92, in the experiment on Malme-3M and in the experiment with HCT-116 was > 100 µM (inactive) in each case. For the same compound, the GI50 is > 100 µM (inactive) with SK-OV-3; > 100 µM (inactive) with SF-295; > 100 µM (inactive) with U-251; above 100 µM with HCT-15; > 100 µM (inactive) with TK-10.

With `O/N=C/c1ccc(O)c(O)c1`, the GI50 in the experiment with COLO 205 is 55.8 µM (inactive); in the experiment with HCC 2998, > 100 µM (inactive); with A498, > 100 µM (inactive); in the experiment on SNB-75, > 100 µM (inactive); in the experiment with 786-0, > 100 µM (inactive); in the experiment on SK-MEL-5 it was 62.8 µM (inactive). For the same compound, the GI50 in the experiment on KM12 was > 100 µM (inactive); with K562, 55.8 µM (inactive); in the experiment with HOP-92, > 100 µM (inactive); in the experiment on Malme-3M, > 100 µM (inactive); in the experiment on HCT-116, > 100 µM (inactive); in the experiment with SK-OV-3 it was > 100 µM (inactive). Moreover, the GI50 is 31.8 µM (inactive) in the experiment on OVCAR-3; > 100 µM (inactive) in the experiment on SF-295; 61.7 µM (inactive) in the experiment with U-251; 67.8 µM (inactive) with LOX IMVI; 44.1 µM in the experiment on HCT-15; > 100 µM (inactive) in the experiment on TK-10.

For `O=C1NN=CN2C(=O)CCC12` (stereo not drawn), the GI50 with RPMI-8226, in the experiment on COLO 205, in the experiment with HCC 2998, in the experiment on A498, in the experiment on SNB-75 and in the experiment with 786-0 was > 100 µM (inactive) each time. The GI50 in the experiment with SK-MEL-5, in the experiment on KM12, in the experiment with K562, with HOP-92, with HCT-116 and in the experiment with SK-OV-3 was > 100 µM (inactive) in each case. Further, the GI50 is > 100 µM (inactive) with OVCAR-3; > 100 µM (inactive) in the experiment on SF-295; > 100 µM (inactive) with U-251; > 100 µM (inactive) in the experiment with LOX IMVI; above 100 µM in the experiment with HCT-15; > 100 µM (inactive) in the experiment on TK-10.

In the case of `CCOc1ccc(/C=N\N2C(=O)c3ccccc3C2=O)cc1`, the GI50 with RPMI-8226, with HCC 2998, in the experiment on A498, in the experiment with SNB-75, in the experiment with 786-0 and in the experiment with SK-MEL-5 was > 100 µM (inactive) throughout. Also, the GI50 in the experiment with KM12, in the experiment on K562, with HOP-92, with Malme-3M, in the experiment on HCT-116 and in the experiment with OVCAR-3 was > 100 µM (inactive) each time. Further, the GI50 in the experiment on SF-295 was > 100 µM (inactive); in the experiment on LOX IMVI, > 100 µM (inactive); with HCT-15, above 100 µM; with TK-10, > 100 µM (inactive).

Turning to `COC(=O)[C@@]12OC[C@]34C([C@@H](O)C1O)[C@@]1(C)CC(=O)C(O)=C(C)C1C[C@H]3OC(=O)[C@H](OC(=O)CC(C)C(F)(F)F)[C@H]42` (stereo partly drawn), the GI50 in the experiment with RPMI-8226 was 0.0116 µM (active); in the experiment on COLO 205 it was 0.101 µM (active); in the experiment with HCC 2998, 0.0105 µM (active); in the experiment with A498, 0.0214 µM (active); in the experiment with SNB-75, 0.0445 µM (active); in the experiment on 786-0, 0.0646 µM (active). Moreover, the 50% growth inhibitory concentration (GI50) with SK-MEL-5 was 0.0125 µM (active); in the experiment on KM12, 0.0324 µM (active); in the experiment on K562, 0.0157 µM (active); in the experiment on HOP-92 it was 0.00953 µM (active); with Malme-3M it was 0.0101 µM (active); in the experiment on HCT-116, 0.0101 µM (active). In addition, the 50% growth inhibitory concentration (GI50) in the experiment with SK-OV-3 was 0.0514 µM (active); in the experiment on SF-295, 0.0445 µM (active); with U-251 it was 0.0205 µM (active); with HCT-15, 0.166 µM; in the experiment on TK-10 it was 0.0662 µM (active).

Regarding `CCOC(=O)C(=O)Nc1nc2c(s1)C(=O)c1ccccc1C2=O`, the GI50 was 4.74 µM (inactive) with RPMI-8226; 22.5 µM (inactive) in the experiment with COLO 205; 17.7 µM (inactive) in the experiment with HCC 2998; 16.1 µM (inactive) in the experiment on A498; 16.2 µM (inactive) with SNB-75; 17.4 µM (inactive) with 786-0. Also, the GI50 was 14.3 µM (inactive) in the experiment with SK-MEL-5; 16 µM (inactive) in the experiment on KM12; 6.03 µM (inactive) in the experiment on K562; 12.2 µM (inactive) in the experiment with HOP-92; 12.3 µM (inactive) in the experiment on Malme-3M; 13.3 µM (inactive) in the experiment on HCT-116. The GI50 with SK-OV-3 is > 10 µM (inactive); with OVCAR-3, 5.62 µM (inactive); in the experiment with U-251, 16.6 µM (inactive); in the experiment with HCT-15, 15.6 µM.

Values taken from ChEMBL document CHEMBL1201862, “PubChem BioAssay data set” (2004).
